Consider 8 molecules from patent US20260241062A1, “WATER-DISPERSED PRESSURE-SENSITIVE ADHESIVE COMPOSITION AND PRESSURE-SENSITIVE ADHESIVE SHEET” (NITTO DENKO CORPORATION, priority 2023, published 2026).

Like-named read-outs stand apart in the source and are kept apart here.

One may read the pKa as the pH at which an ionisable group is half protonated. Higher therefore signals a group that holds its proton tightly.

A short description of data set [1]: acid dissociation constant (pKa) of the monomers.
The conditions of data set [2]: at 20° C.; cited from earlier work.
The mark [3] stands for this setting: acid dissociation constant of each component.

Regarding `C=C(C)C(=O)O` [MAA, methacrylic acid], the pKa in data set [1] was determined as 4.66. Moreover, the Water solubility in data set [2] is reported as 9.7 g/100 mL. “2-acryloyloxyethyl succinic acid [HOA-MS]” showed a pKa in data set [1] (setting [3]) of 4.35. Turning to `C=CC(=O)N(CC)CC` [DEAA, diethylacrylamide], the pKa in data set [1] (setting [3]) is on record as −0.77. The Water solubility result in data set [2] is “Soluble”. `C=CC(=O)NCCCN(C)C` [DMAPAA, dimethylaminopropylacrylamide] registered a pKa in data set [1] (setting [3]) of 14.88. Moreover, the Water solubility result in data set [2] is “Soluble”. Consider `C=CC(=O)N1CCOCC1` [ACMO, N-acryloylmorpholine], for which the pKa in data set [1] was -1.08.

Turning to `C=C(C)C(=O)OC` [MMA, methyl methacrylate], in data set [2], the Water solubility was 1.6 g/100 mL. As for `C=CC(=O)NC(C)C` [NIPAM, N-isopropylacrylamide], in data set [1], the pKa was determined as 14.8. Moreover, the Water solubility in data set [2] is recorded as under 0.1 g/100 mL. Take `C=CN1CCCC1=O` [NVP, N-vinylpyrrolidone]: in data set [1], the pKa was -0.34. The Water solubility result in data set [2] was “Miscible”.
